How the values were obtained:
Assay type in all cases: cell-based
[1] = system: cultured cells of Taxus baccata LINN; assay: Taxus baccata cell culture with cyclic polysaccharides and methyl ester of jasmonic acid
Description: […] After completing the culture, cultured cells of Taxus baccata LINN were harvested by filtration and lyophilized, then the dry weight was measured to obtain the yeild thereof per liter of the liquid medium.

[2] = system: cultured cells of Taxus media; assay: Taxus media cell culture with derivatives of jasmonic acids
Description: A part of germ of Taxus media which had been previously sterilized with 2% antiformin solution or 70% ethanol solution or the like, was placed on solid Woody Plant Medium (containing gelan gum of 0.25% by weight) to which naphthalenacetic acid had been added to give the concentration of 10^−5 M, and static culture was carried out at 25° C. in a dark place to provide callus of Taxus media. One gram (fresh weight) of the callus was inoculated to an Erlenmeyer flask containing 20 ml of liquid Woody Plant Medium to which above-mentioned component was added to give the same concentration, the and shake culture was carried out with a rotary shaker (amplification of 25 mm, 100 rpm) and the callus was subcultured in every 14 days to accelerate the growth rate thereof.
Two grams (fresh weight) of the cultured cells thus obtained was inoculated to an Erlenmeyer flask containing 20 ml of liquid Woody Plant […], and the culture was further carried out for another 14 days.
After completing the culture, cultured cells of Taxus media were harvested by filtration and lyophilized, then the dry weight was measured to obtain the yield of the cultured cells per liter of the liquid medium.

[3] = system: cultured cells of Taxus baccata LINN; assay: Taxus baccata cell culture with coronatines
Description: A part of stem of Taxus baccata LINN which had been previously sterilized with 2% antiformin solution or 70% ethanol solution or the like, was placed on solid Woody Plant Medium (containing gelan gum of 0.25% by weight) to which naphthalenacetic acid had been added to give the concentration of 10^−5 M, and static culture was carried out at 25 ° C. in a dark place to provide callus of Taxus baccata LINN. One gram (fresh weight) of the callus was inoculated to an Erlenmeyer flask containing 20 ml of liquid Woody Plant Medium to which the above-mentioned component was added to give the same concentration and shake culture was carried out with a rotary shaker (amplification of 25 mm, 120 rpm) and the callus was subcultured in every 21 days to accelerate the growth rate thereof.
One gram (fresh weight) of the cultured cells thus obtained was inoculated to an Erlenmeyer flask containing 20 ml of liquid Woody Plant Medium to which the above-mentioned component was added to give the same concentration, and shake culture was carried out at 25° C. for 14 days. On the 14th day after starting the culture, 50 μl of coronatine [formula (IV)] was added as coronatines to the culture medium to give the final concentration of 0.001-1000 μM and the culture was further carried out for another 7 days.
After completing the culture, cultured cells of Taxus baccata LINN were harvested by filtration and lyophilized, then the dry weight was measured to obtain the yeild of the cultured cells per liter of the liquid medium.

[4] = system: cultured cells of Taxus baccata LINN; assay: Taxus baccata cell culture with fatty acids or natural oil; conditions: added fatty acid 100 μM; 14 days
Description: One gram (fresh weight) of the callus was inoculated to an Erlenmeyer flask containing 20 ml of liquid Woody Plant Medium and shake culture was carried out with a rotary shaker (amplification of 25 mm, 100 rpm) and the callus was subcultured in every 21 days to accelerate the growth rate thereof.

[5] = cyclic polysaccharide 10 mM + methyl ester of jasmonic acid 100 μM
[6] = concentration of derivative of jasmonic acids 100 μM
[7] = concentration of coronatines 10 μM
[8] = concentration of derivative of jasmonic acids 0.001 μM
[9] = concentration of derivative of jasmonic acids 0.01 μM
[10] = concentration of derivative of jasmonic acids 0.1 μM
[11] = concentration of derivative of jasmonic acids 1 μM
[12] = concentration of derivative of jasmonic acids 10 μM
[13] = concentration of derivative of jasmonic acids 1000 μM
[14] = concentration of coronatines 1 μM
[15] = methyl ester of jasmonic acid 100 μM, β-cyclodextrin 0 mM

Molecule: cyclofructan [Example 25]
- yield of baccatin III [1, 5]: 51.4 mg/L
- yield of cephalomannine [1, 5]: 9.1 mg/L
- yield of cultured cells [1, 5]: 17.9 g/L
- yield of taxol [1, 5]: 48.9 mg/L

Molecule: CC/C=C\CC1/C(=N\OC)CCC1CC(=O)OC (centres unmarked) [Example 33]
- yield of cultured cells [2, 6]: 16.1 g/L
- yield of taxane-type diterpenes, baccatin III [2, 6]: 18.0 mg/L
- yield of taxane-type diterpenes, cephalomannine [2, 6]: 5.2 mg/L
- yield of taxane-type diterpenes, taxol [2, 6]: 65.3 mg/L

Molecule: CCC1C=C(C(=O)O)C2CCC(=O)C2C1 (centres unmarked) [Example 10, coronafacic acid]
- yield of baccatin III [3, 7]: 12.4 mg/L
- yield of cephalomannine [3, 7]: 3.0 mg/L
- yield of cultured cells [3, 7]: 18.6 g/L
- yield of taxol [3, 7]: 6.2 mg/L

Molecule: CC/C=C\CC1C(=NNS(C)(=O)=O)CCC1CC(=O)OC (centres unmarked) [Example 37]
- yield of cultured cells [2, 6]: 17.1 g/L
- yield of taxane-type diterpenes, baccatin III [2, 6]: 15.3 mg/L
- yield of taxane-type diterpenes, cephalomannine [2, 6]: 5.9 mg/L
- yield of taxane-type diterpenes, taxol [2, 6]: 73.3 mg/L

Molecule: CC/C=C\CC1/C(=N\NC(N)=O)CCC1CC(=O)OC (centres unmarked) [Example 35]
- yield of cultured cells [2, 6]: 15.3 g/L
- yield of taxane-type diterpenes, baccatin III [2, 6]: 17.2 mg/L
- yield of taxane-type diterpenes, cephalomannine [2, 6]: 5.0 mg/L
- yield of taxane-type diterpenes, taxol [2, 6]: 56.3 mg/L

Molecule: CC/C=C\CC1C(=NO)CCC1CC(=O)OC (centres unmarked) [Example 32]
- yield of cultured cells [2, 8]: 22.0 g/L
- yield of taxane-type diterpenes, baccatin III [2, 8]: 6.7 mg/L
- yield of taxane-type diterpenes, cephalomannine [2, 8]: 3.2 mg/L
- yield of taxane-type diterpenes, taxol [2, 8]: 16.7 mg/L
- yield of cultured cells [2, 9]: 21.1 g/L
- yield of taxane-type diterpenes, baccatin III [2, 9]: 6.8 mg/L
- yield of taxane-type diterpenes, cephalomannine [2, 9]: 3.6 mg/L
- yield of taxane-type diterpenes, taxol [2, 9]: 20.2 mg/L
- yield of cultured cells [2, 10]: 20.2 g/L
- yield of taxane-type diterpenes, baccatin III [2, 10]: 7.5 mg/L
- yield of taxane-type diterpenes, cephalomannine [2, 10]: 4.0 mg/L
- yield of taxane-type diterpenes, taxol [2, 10]: 24.1 mg/L
- yield of cultured cells [2, 11]: 19.5 g/L
- yield of taxane-type diterpenes, baccatin III [2, 11]: 8.5 mg/L
- yield of taxane-type diterpenes, cephalomannine [2, 11]: 4.2 mg/L
- yield of taxane-type diterpenes, taxol [2, 11]: 34.5 mg/L
- yield of cultured cells [2, 12]: 18.3 g/L
- yield of taxane-type diterpenes, baccatin III [2, 12]: 13.5 mg/L
- yield of taxane-type diterpenes, cephalomannine [2, 12]: 6.3 mg/L
- yield of taxane-type diterpenes, taxol [2, 12]: 56.2 mg/L
- yield of cultured cells [2, 6]: 16.4 g/L
- yield of taxane-type diterpenes, baccatin III [2, 6]: 20.1 mg/L
- yield of taxane-type diterpenes, cephalomannine [2, 6]: 9.2 mg/L
- yield of taxane-type diterpenes, taxol [2, 6]: 78.0 mg/L
- yield of cultured cells [2, 13]: 14.0 g/L
- yield of taxane-type diterpenes, baccatin III [2, 13]: 9.3 mg/L
- yield of taxane-type diterpenes, cephalomannine [2, 13]: 3.5 mg/L
- yield of taxane-type diterpenes, taxol [2, 13]: 17.2 mg/L

Molecule: CC[C@H]1C=C(C(=O)N[C@@]2(C(=O)OC)C[C@@H]2CC)[C@H]2CCC(=O)[C@H]2C1 [Example 9, methyl ester of coronatine]
- yield of baccatin III [3, 14]: 4.6 mg/L
- yield of cephalomannine [3, 14]: 6.6 mg/L
- yield of cultured cells [3, 14]: 19.5 g/L
- yield of taxol [3, 14]: 11.3 mg/L

Molecule: OC[C@H]1O[C@@H]2O[C@H]3[C@H](O)[C@@H](O)[C@@H](O[C@H]4[C@H](O)[C@@H](O)[C@@H](O[C@H]5[C@H](O)[C@@H](O)[C@@H](O[C@H]6[C@H](O)[C@@H](O)[C@@H](O[C@H]7[C@H](O)[C@@H](O)[C@@H](O[C@H]8[C@H](O)[C@@H](O)[C@@H](O[C@H]9[C@H](O)[C@@H](O)[C@@H](O[C@H]1[C@H](O)[C@H]2O)O[C@@H]9CO)O[C@@H]8CO)O[C@@H]7CO)O[C@@H]6CO)O[C@@H]5CO)O[C@@H]4CO)O[C@@H]3CO [Example 24, γ-cyclodextrin]
- yield of baccatin III [1, 5]: 85.2 mg/L
- yield of cephalomannine [1, 5]: 8.5 mg/L
- yield of cultured cells [1, 5]: 17.5 g/L
- yield of taxol [1, 5]: 45.2 mg/L

Molecule: CCCCC/C=C\C/C=C\C/C=C\C/C=C\CCCC(=O)O [Example 29, arachidonic acid]
- yield of cells [4]: 20 g/L
- yield of taxane-type diterpenes, baccatin III [4]: 2 mg/L
- yield of taxane-type diterpenes, cephalomannine [4]: 3 mg/L
- yield of taxane-type diterpenes, taxol [4]: 6 mg/L

Molecule: CCCCC/C=C\C/C=C\CCCCCCCC(=O)O [Example 28, linolic acid]
- yield of cells [4]: 20 g/L
- yield of taxane-type diterpenes, baccatin III [4]: 2 mg/L
- yield of taxane-type diterpenes, cephalomannine [4]: 5 mg/L
- yield of taxane-type diterpenes, taxol [4]: 7 mg/L

Molecule: CC/C=C\CC1C(=NN)CCC1CC(=O)OC (centres unmarked) [Example 34]
- yield of cultured cells [2, 6]: 16.7 g/L
- yield of taxane-type diterpenes, baccatin III [2, 6]: 16.5 mg/L
- yield of taxane-type diterpenes, cephalomannine [2, 6]: 6.6 mg/L
- yield of taxane-type diterpenes, taxol [2, 6]: 55.0 mg/L

Molecule: CC/C=C\CC1C(=O)CCC1CC(=O)OC (centres unmarked) [Reference Example 1, methyl jasmonate, reference compound]
- yield of baccatin III [1, 15]: 49.7 mg/L
- yield of cephalomannine [1, 15]: 7.3 mg/L
- yield of cultured cells [1, 15]: 15.4 g/L
- yield of taxol [1, 15]: 25.9 mg/L
- yield of cultured cells [2, 6]: 16.8 g/L
- yield of taxane-type diterpenes, baccatin III [2, 6]: 12.1 mg/L
- yield of taxane-type diterpenes, cephalomannine [2, 6]: 4.2 mg/L
- yield of taxane-type diterpenes, taxol [2, 6]: 48.0 mg/L

Molecule: CCCCCCCC/C=C\CCCCCCCC(=O)O [Example 27, oleic acid]
- yield of cells [4]: 20 g/L
- yield of taxane-type diterpenes, baccatin III [4]: 2 mg/L
- yield of taxane-type diterpenes, cephalomannine [4]: 4 mg/L
- yield of taxane-type diterpenes, taxol [4]: 9 mg/L

Molecule: CCC1C=C(C(=O)NC(C(=O)O)C(C)C)C2CCC(=O)C2C1 (centres unmarked) [Example 8, N-coronafacoylvaline]
- yield of baccatin III [3, 14]: 25.0 mg/L
- yield of cephalomannine [3, 14]: 9.2 mg/L
- yield of cultured cells [3, 14]: 18.1 g/L
- yield of taxol [3, 14]: 51.1 mg/L

Molecule: CC[C@H]1C=C(C(=O)OC)[C@H]2CCC(=O)[C@H]2C1 [Example 11, methyl ester of coronafacic acid]
- yield of baccatin III [3, 7]: 8.4 mg/L
- yield of cephalomannine [3, 7]: 5.1 mg/L
- yield of cultured cells [3, 7]: 19.2 g/L

Molecule: CC/C=C\CC1/C(=N\NC=O)CCC1CC(=O)OC (centres unmarked) [Example 36]
- yield of cultured cells [2, 6]: 17.2 g/L
- yield of taxane-type diterpenes, baccatin III [2, 6]: 18.5 mg/L
- yield of taxane-type diterpenes, cephalomannine [2, 6]: 6.2 mg/L
- yield of taxane-type diterpenes, taxol [2, 6]: 79.5 mg/L

Molecule: CC/C=C\CC1C(CC(=O)OC)CCC1NO (centres unmarked) [Example 40]
- yield of cultured cells [2, 6]: 16.2 g/L
- yield of taxane-type diterpenes, baccatin III [2, 6]: 14.2 mg/L
- yield of taxane-type diterpenes, cephalomannine [2, 6]: 5.5 mg/L
- yield of taxane-type diterpenes, taxol [2, 6]: 73.3 mg/L

Molecule: OC[C@H]1O[C@@H]2O[C@H]3[C@H](O)[C@@H](O)[C@@H](O[C@H]4[C@H](O)[C@@H](O)[C@@H](O[C@H]5[C@H](O)[C@@H](O)[C@@H](O[C@H]6[C@H](O)[C@@H](O)[C@@H](O[C@H]7[C@H](O)[C@@H](O)[C@@H](O[C@H]1[C@H](O)[C@H]2O)O[C@@H]7CO)O[C@@H]6CO)O[C@@H]5CO)O[C@@H]4CO)O[C@@H]3CO [Example 23, α-cyclodextrin]
- yield of baccatin III [1, 5]: 55.7 mg/L
- yield of cephalomannine [1, 5]: 7.5 mg/L
- yield of cultured cells [1, 5]: 16.6 g/L
- yield of taxol [1, 5]: 46.0 mg/L

Molecule: CC/C=C\CC1C(=NS(N)(=O)=O)CCC1CC(=O)OC (centres unmarked) [Example 39]
- yield of cultured cells [2, 6]: 17.1 g/L
- yield of taxane-type diterpenes, baccatin III [2, 6]: 19.0 mg/L
- yield of taxane-type diterpenes, cephalomannine [2, 6]: 7.5 mg/L
- yield of taxane-type diterpenes, taxol [2, 6]: 85.0 mg/L

Molecule: CC/C=C\CC1C(=NC#N)CCC1CC(=O)OC (centres unmarked) [Example 38]
- yield of cultured cells [2, 6]: 14.3 g/L
- yield of taxane-type diterpenes, baccatin III [2, 6]: 14.5 mg/L
- yield of taxane-type diterpenes, cephalomannine [2, 6]: 5.0 mg/L
- yield of taxane-type diterpenes, taxol [2, 6]: 82.9 mg/L

From patent US6465221B1, “Method of producing a taxane-type diterpene” (Mitsui Chemicals, Inc., priority 1994, dated 2002)
